Values quoted from earlier work as cited in US20050048543A1 (priority 2003, published 2005).

Key:
[1] = tested on: patients with mild to moderate AD; settings: galantamine therapy in patients

| SMILES | response to treatment in presence of the ApoE4 polymorphism (AD patients) | most common side effects [1] |
| --- | --- | --- |
| Nc1c2c(nc3ccccc13)CCCC2 [tacrine] | reduced response to treatment |  |
| COc1ccc2c3c1O[C@H]1C[C@@H](O)C=C[C@@]31CCN(C)C2 [galantamine] |  | nausea, vomiting, diarrhea, dizziness and anorexia |
